Data on 5 compounds can be found in patent US20250236617A1, “BICYCLIC TETRAHYDROTHIAZEPINE DERIVATIVES” (Hoffmann-La Roche Inc., priority 2022, published 2025).

For one experiment, the system named is primary human T-cells. Put plainly: T-cell proliferation assay (CellTiter-Glo). Conditions: CD3 condition; for Emax proliferation (% activation): 5 days, 20 μM reference compound A1 = 100%; for EC50: Homo sapiens, T-cell, 120 h, proliferation after 5 days, CellTiter-Glo, read-out: Tcell Proliferation CD3 EC50. The experiment is classed as cell-based. (In ATP-based viability assays light output follows the ATP content of the culture.)

The test system of the next experiment is MV-3 RFP cells. As to the kind of experiment: T-cell-TCB-MV3 killing assay. Conditions: MV-3, 120 h, primary human T-cells + MCSP-TCB, 5 d; for Emax: 20 μM reference compound A1 = 100%, read-out: MSCP TCB killing MV-3 cells 5 d Emax; for EC50: read-out: MSCP TCB killing MV-3 cells 5 d EC50. Format: cell-based. How it is done:
All culturing steps are executed at 5% CO2, 37° C. and 95% humidity.
MV-3 RFP cells are cultured in MV-3 medium (DMEM+10% FBS, 1× PenStrep and 0.5 μg/mL Puromycin) for at least 3 weeks. Cultured MV-3 cells at 80% confluency are washed once with PBS−− and trypsinized until detached. […] Cells are seeded with 100 μL/well into a 96-well plate (TTP, #92696), and placed for 40 minutes without moving at room temperature in order to achieve evenly distributed attachment of cells. Plates are then incubated until further use.
On the next day, expanded primary human T-cells are thawed and resuspended in T-cell medium to 4*10^6 cells/mL. For 3 hours, they are cultured in a 6-well plate with 6 mL per well at maximum. After culturing the T-cells, they are filtered through a cell strainer (Miltenyi Biotech, #130-041-407), counted again, and cell concentration is adjusted to 2*10^6 cells/mL.
MCSP-TCB or PBS are pre-diluted in T-cell medium (concentration depending on T-cell donor), 4 times more concentrated than the end-concentration. 60 μL/well of pre-dilutions are then distributed into a round bottom plate (Costar, #3799) according to plate layout. Compounds are added in a 9 pt dose response with the Tecan D300e Digital Dispenser, as well 4 times more concentrated than the end-concentration. DMSO concentration of all wells is adjusted to 0.8%, resulting in 0.2% as final concentration.
60 μL per well of T-cell suspension are added to the prepared round bottom plate and resuspended with a manual multichannel. 100 μL/well of the resuspended T-cell suspension including treatments are then transferred cautiously to the over-night cultured MV-3 cells according to plate layout. 100 μL T-cell medium only is added to the outer MV-3 wells only. Final compound DR is starting at 20 μM with a dilution factor of 3.333. Final TCB concentration is between […] and was determined for each T-cell donor individually by running TCB titrations. For each donor, a TCB concentration was chosen which corresponds to 10-20% of MV3 baseline cell killing in the absence of compound treatment. Positive control is the reference compound A1 which is added in a DR, as well as additional wells with only 20 μM. 20 μM of reference compound A1 represent the positive stimulator control, TCB only (DMSO wells) the neutral control.
After transfer of T-cells with treatment pre-dilutions, MV-3 cells are imaged by time-lapse microscopy using IncucyteZOOM™ (Essen BioScience, MI, USA). Imaging is performed every 3 hours for a total of 120 hours (10× objective, phase and red image channels, acquisition time 400 ms, Green/Red 4614 optical module). RFP object count per well is analysed in the IncucyteZOOM™ Software (Version 2019B Rev2) with a mask that was previously created and optimized for MV-3 cells. Raw data is exported as object count/well and values are normalized as % TCL compared to wells with MV-3 only, representing 100% growth and therefore 0% TCL.
Calculated % TCL values are analysed in Genedata Screener using Roche Normalization PCT_POS_CTRL with MCSP-TCB only set as Neutral Control and 20 μM of the reference compound A1 set as Stimulator Control/100%.

Take `CC(C)(C#N)c1cncc(-c2cc3c(cc2F)S(=O)(=O)C[C@H](N)C(=O)N3Cc2ccc(-c3noc(C(F)(F)F)n3)cc2)c1` [Example 23, 2-[5-[(3R)-3-amino-8-fluoro-1,1,4-triketo-5-[4-[5-(trifluoromethyl)-1,2,4-oxadiazol-3-yl]benzyl]-2,3-dihydro-1λ6,5-benzothiazepin-7-yl]-3-pyridyl]-2-methyl-propionitrile]: in the experiment with primary human T-cells, the “Emax proliferation (% activation)” value came to 204 % activation and the EC50 was 933 nM.
For orientation: Emax means the maximal effect, on the per cent scale that the assay sets. `CC(C)(c1cncc(-c2cc3c(cc2F)S(=O)(=O)C[C@H](N)C(=O)N3Cc2ccc(-c3noc(C(F)(F)F)n3)cc2)c1)S(C)(=O)=O` [Example 25, (3R)-3-amino-8-fluoro-1,1-diketo-7-[5-(1-mesyl-1-methyl-ethyl)-3-pyridyl]-5-[4-[5-(trifluoromethyl)-1,2,4-oxadiazol-3-yl]benzyl]-2,3-dihydro-1λ6,5-benzothiazepin-4-one]: in the experiment with primary human T-cells, the “Emax proliferation (% activation)” value was 120 % activation and the EC50 worked out at 526 nM. Besides, in the experiment with MV-3 RFP cells, the Emax is 86% and the EC50 stood at 841 nM.
Take `COc1ccc(-c2ccc(CN3C(=O)[C@@H](N)CS(=O)(=O)c4cc(F)c(-c5cnc(C)c(C)c5)cc43)cc2)cc1` [Example 28, (3R)-3-amino-7-(5,6-dimethyl-3-pyridyl)-8-fluoro-5-[[4-(4-methoxyphenyl)phenyl]methyl]-1,1-dioxo-2,3-dihydro-1λ6,5-benzothiazepin-4-one]: in the experiment with primary human T-cells, the “Emax proliferation (% activation)” value was found to be 155 % activation and the EC50 is 81 nM. Also, in the experiment on MV-3 RFP cells, the Emax was 89% and the EC50 was determined as 69 nM.
`CC(C)(C)c1cnnc(-c2cc3c(cc2F)S(=O)(=O)C[C@H](N)C(=O)N3Cc2ccc(Cl)cc2)n1` [Example 11, (3R)-3-amino-7-(5-tert-butyl-1,2,4-triazin-3-yl)-5-[(4-chlorophenyl)methyl]-8-fluoro-1,1-dioxo-2,3-dihydro-1λ6,5-benzothiazepin-4-one]: the EC50 in the experiment on primary human T-cells is 90 nM. In the experiment with MV-3 RFP cells, the maximal response (Emax) was 118% and the EC50 came out at 134 nM.
The like results for `CC(C)(C)c1cncc(-c2cc3c(cc2F)S(=O)(=O)C[C@H](N)C(=O)N3Cc2ccc(Cl)cc2)c1` [Example 2, (3R)-3-amino-7-(5-tert-butyl-3-pyridyl)-5-[(4-chlorophenyl)methyl]-8-fluoro-1,1-dioxo-2,3-dihydro-1λ6,5-benzothiazepin-4-one] were, in that order, 81 nM, 85% and 78 nM.
